The results in this text go back to patent publication US9062124B2, “GIP-based mixed agonists for treatment of metabolic disorders and obesity” (priority 2008, dated 2015).

What all share (assay type): cell-based
One test concerns the target T1, glucagon receptor (Homo sapiens, UniProt P47871).
T1 construct: expressed in transfected cells; host or cells: HEK293
The test can be described thus: cAMP synthesis functional assay (firefly luciferase reporter in HEK293 cells), glucagon receptor.

The target of the next test is T2, GLP-1 receptor (Homo sapiens, UniProt P43220).
T2 construct: expressed in transfected cells; host or cells: HEK293
In words: cAMP synthesis functional assay (firefly luciferase reporter in HEK293 cells), GLP-1 receptor. Background: Reporter assays use an easily measured gene product as a stand-in for the process of interest.

Another test has as its target T3, GIP receptor (Homo sapiens, UniProt P48546).
T3 construct: expressed in transfected cells; host or cells: HEK293
T3 sequence (P48546 22-466): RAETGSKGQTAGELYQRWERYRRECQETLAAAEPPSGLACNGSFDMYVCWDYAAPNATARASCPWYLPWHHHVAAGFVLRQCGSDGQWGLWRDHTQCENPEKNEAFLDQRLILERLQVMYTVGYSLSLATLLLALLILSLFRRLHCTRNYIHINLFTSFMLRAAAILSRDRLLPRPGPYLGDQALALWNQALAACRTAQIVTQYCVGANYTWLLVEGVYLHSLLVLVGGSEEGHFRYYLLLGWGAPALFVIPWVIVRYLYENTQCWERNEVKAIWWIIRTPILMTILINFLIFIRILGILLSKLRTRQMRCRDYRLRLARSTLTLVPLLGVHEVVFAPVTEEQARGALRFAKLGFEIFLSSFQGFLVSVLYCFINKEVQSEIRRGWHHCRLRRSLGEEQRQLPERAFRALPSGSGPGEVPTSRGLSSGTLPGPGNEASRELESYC
The test can be described thus: cAMP synthesis functional assay (firefly luciferase reporter in HEK293 cells), GIP receptor.

The mark [1] stands for this setting: Table 1, relative to the native hormone of the indicated receptor.
[2] abbreviates: Table 4, relative to the native hormone.

Where two headings read alike, the source gives them in different places. Where a SMILES comes first, the peptide text is derived from it. Bridges are numbered along the chain shown (N, C = ends). Where no end group is shown, it is not given here. [ ]: non-standard residue; d: D form. PEG 40 kDa = PEG (40 kDa) covalently attached to Cys; Aib = CC(C)(N)C(=O)O

T1 sequence (P47871 26-477): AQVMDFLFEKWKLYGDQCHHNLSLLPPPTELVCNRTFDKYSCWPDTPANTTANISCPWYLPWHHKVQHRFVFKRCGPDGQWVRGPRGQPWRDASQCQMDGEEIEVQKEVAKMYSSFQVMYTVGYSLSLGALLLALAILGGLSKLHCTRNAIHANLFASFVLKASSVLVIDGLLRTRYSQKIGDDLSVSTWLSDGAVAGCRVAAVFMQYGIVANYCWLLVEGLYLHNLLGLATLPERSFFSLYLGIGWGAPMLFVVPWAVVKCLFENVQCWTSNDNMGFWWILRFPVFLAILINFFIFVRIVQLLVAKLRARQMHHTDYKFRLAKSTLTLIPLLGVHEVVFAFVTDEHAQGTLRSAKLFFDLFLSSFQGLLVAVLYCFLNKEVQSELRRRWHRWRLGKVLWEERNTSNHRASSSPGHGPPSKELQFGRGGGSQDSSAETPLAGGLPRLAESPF
T2 sequence (P43220 24-463, species assumed): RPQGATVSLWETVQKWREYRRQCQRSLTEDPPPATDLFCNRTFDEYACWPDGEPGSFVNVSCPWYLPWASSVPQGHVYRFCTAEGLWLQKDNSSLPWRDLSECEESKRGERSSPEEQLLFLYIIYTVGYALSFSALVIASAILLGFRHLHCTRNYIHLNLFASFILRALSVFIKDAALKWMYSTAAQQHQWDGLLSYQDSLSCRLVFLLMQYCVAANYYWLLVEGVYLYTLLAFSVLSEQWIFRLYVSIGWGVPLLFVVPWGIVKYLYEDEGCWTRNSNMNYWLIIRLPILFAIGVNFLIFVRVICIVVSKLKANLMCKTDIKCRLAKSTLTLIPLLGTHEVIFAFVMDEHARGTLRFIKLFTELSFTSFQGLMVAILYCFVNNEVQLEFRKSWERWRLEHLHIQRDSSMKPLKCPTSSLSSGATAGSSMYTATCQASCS

In the case of `CC[C@H](C)[C@@H]1NC(=O)[C@@H](NC(=O)[C@H](CC(=O)O)NC(=O)[C@H](CC(C)C)NC(=O)[C@H](Cc2ccc(O)cc2)NC(=O)[C@H](CCCCN)NC(=O)[C@H](CO)NC(=O)[C@H](Cc2ccc(O)cc2)NC(=O)[C@H](CC(=O)O)NC(=O)[C@H](CO)NC(=O)[C@@H](NC(=O)[C@H](Cc2ccccc2)NC(=O)[C@@H](NC(=O)CNC(=O)[C@H](CCC(N)=O)NC(=O)[C@H](CO)NC(=O)[C@@H](N)Cc2c[nH]cn2)[C@@H](C)O)[C@@H](C)O)CCC(=O)NCCCC[C@@H](C(=O)N[C@@H](CC(=O)O)C(=O)N[C@@H](Cc2ccccc2)C(=O)N[C@H](C(=O)N[C@@H](CC(N)=O)C(=O)N[C@@H](Cc2c[nH]c3ccccc23)C(=O)N[C@@H](CC(C)C)C(=O)N[C@@H](CC(C)C)C(=O)N[C@@H](C)C(=O)NCC(=O)NCC(=O)N2CCC[C@H]2C(=O)N[C@@H](CO)C(=O)N[C@@H](CO)C(=O)NCC(=O)N[C@@H](C)C(=O)N2CCC[C@H]2C(=O)N2CCC[C@H]2C(=O)N2CCC[C@H]2C(=O)N[C@@H](CO)C(N)=O)C(C)C)NC(=O)[C@H](CCC(N)=O)NC(=O)[C@H](Cc2c[nH]cn2)NC1=O` [mt-115] (H-HSQGTFTSDYSKYLDEIHQKDFVNWLLAGGPSSGAPPPS-NH2; lactam 16-20; N-terminus assumed), the “Glucagon Receptor relative activity” value at glucagon receptor (setting [1]) is on record as 11.36%. Moreover, the “GLP-1 Receptor relative activity” value at GLP-1 receptor (setting [1]) amounted to 20.00%. The “GIP Receptor relative activity” value on GIP receptor (setting [1]) stood at 1.31%.
Turning to `CC[C@H](C)[C@H](NC(=O)[C@H](CO)NC(=O)[C@H](Cc1ccc(O)cc1)NC(=O)[C@H](CC(=O)O)NC(=O)[C@H](CO)NC(=O)[C@@H](NC(=O)[C@H](Cc1ccccc1)NC(=O)[C@@H](NC(=O)CNC(=O)[C@H](CCC(=O)O)NC(=O)[C@H](C)NC(=O)[C@@H](N)Cc1c[nH]cn1)[C@@H](C)O)[C@@H](C)O)C(=O)N[C@@H](Cc1ccc(O)cc1)C(=O)N[C@@H](CCSC)C(=O)N[C@@H](CC(=O)O)C(=O)N[C@H]1CCC(=O)NCCCC[C@@H](C(=O)N[C@@H](CC(=O)O)C(=O)N[C@@H](Cc2ccccc2)C(=O)N[C@H](C(=O)N[C@@H](CC(N)=O)C(=O)N[C@@H](Cc2c[nH]c3ccccc23)C(=O)N[C@@H](CC(C)C)C(=O)N[C@@H](CC(C)C)C(=O)N[C@@H](C)C(=O)N[C@@H](CCC(N)=O)C(N)=O)C(C)C)NC(=O)[C@H](CCC(N)=O)NC(=O)[C@H](Cc2c[nH]cn2)NC(=O)[C@H]([C@@H](C)CC)NC1=O` [mt-97] (H-HAEGTFTSDYSIYMDEIHQKDFVNWLLAQ-NH2; lactam 16-20; N-terminus assumed), the “Glucagon Receptor relative activity” value on glucagon receptor (setting [1]) came to 3.19%. The “GLP-1 Receptor relative activity” value at GLP-1 receptor (setting [1]) is listed as 1.27%. The “GIP Receptor relative activity” value on GIP receptor (setting [1]) worked out at 2.81%.
Regarding `CC[C@H](C)[C@H](NC(=O)[C@H](CO)NC(=O)[C@H](Cc1ccc(O)cc1)NC(=O)[C@H](CC(=O)O)NC(=O)[C@H](CO)NC(=O)[C@@H](NC(=O)[C@H](Cc1ccccc1)NC(=O)[C@@H](NC(=O)CNC(=O)[C@H](CCC(N)=O)NC(=O)C(C)(C)NC(=O)[C@@H](N)Cc1ccc(O)cc1)[C@@H](C)O)[C@@H](C)CC)C(=O)N[C@@H](Cc1ccc(O)cc1)C(=O)N[C@@H](CC(C)C)C(=O)N[C@@H](CC(=O)O)C(=O)N[C@@H](CCCCN)C(=O)N[C@@H](CCC(N)=O)C(=O)N[C@@H](C)C(=O)N[C@@H](C)C(=O)NC(C)(C)C(=O)N[C@@H](CCC(=O)O)C(=O)N[C@@H](Cc1ccccc1)C(=O)N[C@H](C(=O)N[C@@H](CC(N)=O)C(=O)N[C@@H](Cc1c[nH]c2ccccc12)C(=O)N[C@@H](CC(C)C)C(=O)N[C@@H](CC(C)C)C(=O)N[C@@H](C)C(=O)NCC(=O)NCC(=O)N1CCC[C@H]1C(=O)N[C@@H](CO)C(=O)N[C@@H](CO)C(=O)NCC(=O)N[C@@H](C)C(=O)N1CCC[C@H]1C(=O)N1CCC[C@H]1C(=O)N1CCC[C@H]1C(=O)N[C@@H](CO)C(=O)N[C@@H](CCCCN)C(N)=O)C(C)C` [mt-357] (H-Y[Aib]QGTFISDYSIYLDKQAA[Aib]EFVNWLLAGGPSSGAPPPSK-NH2; N-terminus assumed), the “Glucagon Receptor relative activity” value on glucagon receptor (setting [2]) is recorded as 260.92%. Moreover, the “GLP-1 Receptor relative activity” value on GLP-1 receptor (setting [2]) was found to be 0.86%. Besides, on GIP receptor (setting [2]), the “GIP Receptor relative activity” value is on record as 206.37%.
The term EC50 denotes the midpoint of the concentration-response curve. As for `CC[C@H](C)[C@H](NC(=O)[C@H](Cc1ccccc1)NC(=O)[C@H](CCC(=O)O)NC(=O)[C@@H]1CCCCNC(=O)CC[C@H](NC(=O)[C@H](CC(=O)O)NC(=O)[C@H](CC(C)C)NC(=O)[C@H](Cc2ccc(O)cc2)NC(=O)[C@@H](NC(=O)[C@H](CO)NC(=O)[C@H](Cc2ccc(O)cc2)NC(=O)[C@H](CC(=O)O)NC(=O)[C@H](CO)NC(=O)[C@@H](NC(=O)[C@H](Cc2ccccc2)NC(=O)[C@@H](NC(=O)CNC(=O)[C@H](CCC(N)=O)NC(=O)[C@H](CO)NC(=O)[C@@H](N)Cc2c[nH]cn2)[C@@H](C)O)[C@@H](C)O)[C@@H](C)CC)C(=O)N[C@@H]([C@@H](C)CC)C(=O)N[C@@H](Cc2c[nH]cn2)C(=O)N[C@@H](CCC(N)=O)C(=O)N1)C(=O)N[C@@H](C)C(=O)N[C@@H](Cc1c[nH]c2ccccc12)C(=O)N[C@@H](CC(C)C)C(=O)N[C@@H](CCSC)C(=O)N[C@@H](CC(N)=O)C(=O)N[C@H](C(N)=O)[C@@H](C)O` [mt-62] (H-HSQGTFTSDYSIYLDEIHQKEFIAWLMNT-NH2; lactam 16-20; N-terminus assumed), the response at glucagon receptor (Glucagon Receptor EC50, nM, Table 1) was half-maximal at 0.45 nM (EC50). Further, at glucagon receptor (setting [1]), the “Glucagon Receptor relative activity” value came out at 42.22%. Moreover, the “GLP-1 Receptor relative activity” value at GLP-1 receptor (setting [1]) came to 40.00%. The “GIP Receptor relative activity” value on GIP receptor (setting [1]) is listed as 1.60%.
For `CC[C@H](C)[C@H](NC(=O)[C@H](Cc1ccccc1)NC(=O)[C@H](CC(=O)O)NC(=O)[C@@H]1CCCCNC(=O)CC[C@H](NC(=O)[C@H](CC(=O)O)NC(=O)[C@H](CC(C)C)NC(=O)[C@H](Cc2ccc(O)cc2)NC(=O)[C@H](CCCCN)NC(=O)[C@H](CO)NC(=O)[C@H](Cc2ccc(O)cc2)NC(=O)[C@H](CC(=O)O)NC(=O)[C@H](CO)NC(=O)[C@@H](NC(=O)[C@H](Cc2ccccc2)NC(=O)[C@@H](NC(=O)CNC(=O)[C@H](CCC(N)=O)NC(=O)[C@H](CO)NC(=O)[C@@H](N)Cc2ccc(O)cc2)[C@@H](C)O)[C@@H](C)O)C(=O)N[C@@H]([C@@H](C)CC)C(=O)N[C@@H](Cc2c[nH]cn2)C(=O)N[C@@H](CCC(N)=O)C(=O)N1)C(=O)N[C@@H](C)C(=O)N[C@@H](Cc1c[nH]c2ccccc12)C(=O)N[C@@H](CC(C)C)C(=O)N[C@@H](CCSC)C(=O)N[C@@H](CC(N)=O)C(=O)NCC(=O)NCC(=O)N1CCC[C@H]1C(=O)N[C@@H](CO)C(=O)N[C@@H](CO)C(=O)NCC(=O)N[C@@H](C)C(=O)N1CCC[C@H]1C(=O)N1CCC[C@H]1C(=O)N1CCC[C@H]1C(=O)N[C@@H](CO)C(N)=O` [mt-129] (H-YSQGTFTSDYSKYLDEIHQKDFIAWLMNGGPSSGAPPPS-NH2; lactam 16-20; N-terminus assumed), the “Glucagon Receptor relative activity” value at glucagon receptor (setting [1]) came out at 17.34%. The “GLP-1 Receptor relative activity” value at GLP-1 receptor (setting [1]) turned out to be 1.12%. The “GIP Receptor relative activity” value on GIP receptor (setting [1]) was 2.06%.
On to “mt-202: glucagon analog peptide, C-terminal amide (Y[Aib]QGTFVSDYSIYLDEQAAKEFVNWLLAGGPSSGAPPPSC(PEG 40 kDa)-NH2; lactam 16-20)”, for which, in the test with glucagon receptor (setting [1]), the “Glucagon Receptor relative activity” value amounted to 2.84%. Moreover, the EC50 came out at 2.36 nM with glucagon receptor (read-out: Glucagon Receptor EC50, Table 1); 15.7 nM in the test with GLP-1 receptor (read-out: GLP-1 Receptor EC50, Table 1); 2.2 nM with GIP receptor (read-out: GIP Receptor EC50, Table 1). The “GLP-1 Receptor relative activity” value with GLP-1 receptor (setting [1]) was determined as 0.18%. In addition, in the test with GIP receptor (setting [1]), the “GIP Receptor relative activity” value came out at 1.32%.
Regarding `CC[C@H](C)[C@H](NC(=O)[C@H](CO)NC(=O)[C@H](Cc1ccc(O)cc1)NC(=O)[C@H](CC(=O)O)NC(=O)[C@H](CO)NC(=O)[C@@H](NC(=O)[C@H](Cc1ccccc1)NC(=O)[C@@H](NC(=O)CNC(=O)[C@H](CCC(N)=O)NC(=O)[C@H](CO)NC(=O)[C@@H](N)Cc1c[nH]cn1)[C@@H](C)O)[C@@H](C)O)C(=O)N[C@@H](Cc1ccc(O)cc1)C(=O)N[C@@H](CCSC)C(=O)N[C@@H](CC(=O)O)C(=O)N[C@H]1CCC(=O)NCCCC[C@@H](C(=O)N[C@@H](CC(=O)O)C(=O)N[C@@H](Cc2ccccc2)C(=O)N[C@H](C(=O)N[C@@H](CC(N)=O)C(=O)N[C@@H](Cc2c[nH]c3ccccc23)C(=O)N[C@@H](CC(C)C)C(=O)N[C@@H](CC(C)C)C(=O)N[C@@H](C)C(=O)N[C@@H](CCC(N)=O)C(N)=O)C(C)C)NC(=O)[C@H](CCC(N)=O)NC(=O)[C@H](Cc2c[nH]cn2)NC(=O)[C@H]([C@@H](C)CC)NC1=O` [mt-124] (H-HSQGTFTSDYSIYMDEIHQKDFVNWLLAQ-NH2; lactam 16-20; N-terminus assumed), on glucagon receptor (setting [1]), the “Glucagon Receptor relative activity” value amounted to 8.64%. This compound returned an EC50 on GLP-1 receptor (GLP-1 Receptor EC50, nM, Table 1) of 0.04 nM. Also, at GLP-1 receptor (setting [1]), the “GLP-1 Receptor relative activity” value is 100.00%. Moreover, at GIP receptor (setting [1]), the “GIP Receptor relative activity” value came to 0.95%.
